Experimental data reported in patent publication US12441803B2, “Engineered CD25 polypeptides and uses thereof” (iBio, Inc., priority 2018, dated 2025).

System: alanine mutant versions of CD25
Experiment: Alanine mutagenesis functional epitope mapping
Details: binding responses to alanine mutant versions of CD25
Description: Alanine mutagenesis was selected as an orthogonal method for binning antibodies because it operates on the functional epitope, rather than the structural epitope defined by competition assays. Various pairs of surface-accessible residues were selected for mutagenesis.
Each of 117 scFv's from the screening campaign were tested against four alanine mutations pairs (FIG. 31).

basiliximab was tested, and the “Ala-mutant epitope mapping of control antibody” value was “Ala mutant binding responses corroborate crystal structure of the basiliximab epitope”.
